Test results reported in ChEMBL document CHEMBL1201862, “PubChem BioAssay data set” (2004).
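Values below derive from 48-hour exposures of cells grown in 96-well plates, with endpoints linearly interpolated between the two concentrations bracketing the appropriate inhibition level. Here, GI50 denotes the concentration required for 50% inhibition of growth.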 Activity calls are given as the source filed them. Cut-off read from the data, not from the text of the source: active = GI50 up to about 1.1 µM and inactive = higher.

Legend:
Experiment in all cases: growth of human tumour cells (NCI), 48 h
[1] = tested on: 786-0
[2] = tested on: BT-549
[3] = tested on: CAKI-1
[4] = tested on: CCRF-CEM
[5] = tested on: COLO 205
[6] = tested on: DU-145
[7] = tested on: EKVX
[8] = tested on: HL-60
[9] = tested on: HOP-92
[10] = tested on: KM12
[11] = tested on: MCF7
[12] = tested on: MDA-N
[13] = tested on: NCI-H522
[14] = tested on: OVCAR-5
[15] = tested on: RPMI-8226
[16] = tested on: SK-MEL-5
[17] = tested on: SK-OV-3
[18] = tested on: SN12C
[19] = tested on: SW-620
[20] = tested on: TK-10

Oc1c(C(Nc2ccccn2)c2ccccc2)ccc2cccnc12 (stereo not given)
GI50 [1]: 2.76 µM (inactive) | GI50 [2]: 5.25 µM (inactive) | GI50 [3]: 4.09 µM (inactive) | GI50 [4]: 1.37 µM (inactive) | GI50 [5]: 4.74 µM (inactive) | GI50 [6]: 4.05 µM (inactive) | GI50 [7]: 3.01 µM (inactive) | GI50 [8]: 2.28 µM (inactive) | GI50 [9]: 1.94 µM (inactive) | GI50 [10]: 4.59 µM (inactive) | GI50 [11]: 4.04 µM (inactive) | GI50 [12]: 5.7 µM (inactive) | GI50 [13]: 2.68 µM (inactive) | GI50 [14]: 7.78 µM (inactive) | GI50 [15]: 2.56 µM (inactive) | GI50 [16]: 3.66 µM (inactive) | GI50 [17]: 9.4 µM (inactive) | GI50 [18]: 1.24 µM (inactive) | GI50 [19]: 7.13 µM (inactive) | GI50 [20]: 4.99 µM (inactive)

CCc1nnc(S)n1/N=C\c1ccc(-c2ccccc2Cl)o1
GI50 [1]: 30.8 µM (inactive) | GI50 [2]: 26.4 µM (inactive) | GI50 [3]: 45.3 µM (inactive) | GI50 [4]: 27.5 µM (inactive) | GI50 [5]: 31.3 µM (inactive) | GI50 [6]: 41.3 µM (inactive) | GI50 [7]: 36.4 µM (inactive) | GI50 [8]: 20.4 µM (inactive) | GI50 [9]: 33.2 µM (inactive) | GI50 [10]: 28.8 µM (inactive) | GI50 [11]: 32 µM (inactive) | GI50 [12]: 20.5 µM (inactive) | GI50 [13]: 24.1 µM (inactive) | GI50 [14]: 64.6 µM (inactive) | GI50 [15]: 20.5 µM (inactive) | GI50 [16]: 14.3 µM (inactive) | GI50 [17]: 56.9 µM (inactive) | GI50 [18]: 37.2 µM (inactive) | GI50 [19]: 27.7 µM (inactive) | GI50 [20]: 43.7 µM (inactive)

CCC(c1c[nH]c2ccc(Br)cc12)c1c[nH]c2ccc(Br)cc12
GI50 [1]: 3.56 µM (inactive) | GI50 [2]: 10.3 µM (inactive) | GI50 [3]: 2.45 µM (inactive) | GI50 [4]: 2.95 µM (inactive) | GI50 [5]: 2.42 µM (inactive) | GI50 [6]: 2.88 µM (inactive) | GI50 [7]: 5.14 µM (inactive) | GI50 [8]: 4.39 µM (inactive) | GI50 [9]: 2.05 µM (inactive) | GI50 [10]: 1.97 µM (inactive) | GI50 [11]: 3.98 µM (inactive) | GI50 [12]: 4.33 µM (inactive) | GI50 [13]: 4.44 µM (inactive) | GI50 [14]: 3.78 µM (inactive) | GI50 [15]: 2.5 µM (inactive) | GI50 [16]: 8.11 µM (inactive) | GI50 [17]: 11.9 µM (inactive) | GI50 [18]: 3.7 µM (inactive) | GI50 [19]: 3.94 µM (inactive) | GI50 [20]: 10.9 µM (inactive)

O=C1OC(c2ccccc2)=N/C1=C\c1ccc([N+](=O)[O-])cc1
GI50 [1]: 26.9 µM (inactive) | GI50 [2]: 15.3 µM (inactive) | GI50 [3]: 30.7 µM (inactive) | GI50 [4]: 13.8 µM (inactive) | GI50 [5]: > 100 µM (inactive) | GI50 [6]: 47.4 µM (inactive) | GI50 [7]: 36 µM (inactive) | GI50 [8]: 24.4 µM (inactive) | GI50 [9]: 16.1 µM (inactive) | GI50 [10]: 54.8 µM (inactive) | GI50 [11]: 60 µM (inactive) | GI50 [12]: > 100 µM (inactive) | GI50 [13]: 9.57 µM (inactive) | GI50 [14]: > 100 µM (inactive) | GI50 [15]: 30.2 µM (inactive) | GI50 [16]: 66.8 µM (inactive) | GI50 [17]: 34.7 µM (inactive) | GI50 [18]: > 100 µM (inactive) | GI50 [19]: > 100 µM (inactive) | GI50 [20]: 28.8 µM (inactive)

COC1/C=C/C(C)C(OC)CC(O)/C=C/C(C)C(C(C)C(OC)C(C)CCC(=O)C(C)C(C/C=C/N(C)C=O)OC)OC(=O)/C=C/C=C(\C)CC(OC)C(OC)C2=CC(=O)O[C@@H](C(C)C(OC)C1)[C@H]2O (stereo not given in full)
GI50 [1]: 0.0442 µM (active) | GI50 [2]: 0.0578 µM (active) | GI50 [3]: 0.0148 µM (active) | GI50 [4]: 0.0499 µM (active) | GI50 [5]: 0.0205 µM (active) | GI50 [6]: 0.0959 µM (active) | GI50 [7]: 0.08 µM (active) | GI50 [8]: 0.0299 µM (active) | GI50 [9]: 0.0327 µM (active) | GI50 [10]: 0.0399 µM (active) | GI50 [11]: 0.0251 µM (active) | GI50 [12]: 0.0507 µM (active) | GI50 [13]: 0.0295 µM (active) | GI50 [14]: 0.0479 µM (active) | GI50 [15]: 0.346 µM (active) | GI50 [16]: 0.0387 µM (active) | GI50 [17]: 0.0436 µM (active) | GI50 [18]: 0.0498 µM (active) | GI50 [19]: 0.0361 µM (active) | GI50 [20]: 0.0548 µM (active)

CN(C)CCCNc1ccc2ncn3c4ccc(O)cc4c(=O)c1c23
GI50 [1]: 0.692 µM (active) | GI50 [2]: 17.3 µM (inactive) | GI50 [3]: 0.195 µM (active) | GI50 [4]: 0.218 µM (active) | GI50 [5]: 1.11 µM (active) | GI50 [6]: 0.638 µM (active) | GI50 [7]: 4.71 µM (inactive) | GI50 [8]: 0.277 µM (active) | GI50 [9]: 0.705 µM (active) | GI50 [10]: 3.14 µM (inactive) | GI50 [11]: 0.0964 µM (active) | GI50 [12]: 4.48 µM (inactive) | GI50 [13]: 0.252 µM (active) | GI50 [14]: 3.03 µM (inactive) | GI50 [15]: 1.58 µM (inactive) | GI50 [16]: 0.64 µM (active) | GI50 [17]: 0.321 µM (active) | GI50 [18]: 0.5 µM (active) | GI50 [19]: 0.647 µM (active) | GI50 [20]: 1.76 µM (inactive)
